Experimental data as given in the supplement of paper PMC10307832.

Tests used:
Quizartinib + AZD7762 = compound: CC(C)(C)c1cc(NC(=O)Nc2ccc(-c3cn4c(n3)sc3cc(OCCN5CCOCC5)ccc34)cc2)no1 [Quizartinib] + NC(=O)Nc1cc(-c2cccc(F)c2)sc1C(=O)N[C@H]1CCCNC1 [AZD7762] (partner 0.2 µM); test: relative viability (nuclei count vs DMSO), 5 days (fraction); higher = more cells survive
How it was run: (§1)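 Lung cancer cell lines in 1536-well plates were dosed by pin tool the day after seeding, either with one drug alone or with a fixed anchor-drug dose plus five library-drug doses (not always all listed) in √10 steps. After 5 days, cells were fixed and their nuclei stained in one step (final 0.05% Triton X-100, 1% formaldehyde, 1 ug/ml Hoechst), then counted on 4× images. Relative viability is the nuclei count in treated wells divided by that in vehicle wells. Values are medians of duplicate plates.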

Quizartinib + Vorinostat = compound: CC(C)(C)c1cc(NC(=O)Nc2ccc(-c3cn4c(n3)sc3cc(OCCN5CCOCC5)ccc34)cc2)no1 [Quizartinib] + O=C(CCCCCCC(=O)Nc1ccccc1)NO [Vorinostat] (partner 1 µM); test: as above
How it was run: as §1

Cell Line	relative viability (Quizartinib + AZD7762; first compound 0.001 µM)	relative viability (Quizartinib + AZD7762; first compound 0.003162 µM)	relative viability (Quizartinib + AZD7762; first compound 0.01 µM)	relative viability (Quizartinib + AZD7762; first compound 0.03162 µM)	relative viability (Quizartinib + AZD7762; first compound 0.1 µM)	relative viability (Quizartinib + Vorinostat; first compound 0.001 µM)	relative viability (Quizartinib + Vorinostat; first compound 0.003162 µM)	relative viability (Quizartinib + Vorinostat; first compound 0.01 µM)	relative viability (Quizartinib + Vorinostat; first compound 0.03162 µM)	relative viability (Quizartinib + Vorinostat; first compound 0.1 µM)
NCI-H650	0.858	0.785	1.25	0.856	1.13	0.464	0.445	0.416	0.456	0.54
NCI-H661	–	–	–	–	–	0.724	0.812	0.87	0.807	0.888
NCI-H727	0.667	0.545	0.564	0.457	0.759	1.16	1.13	1.18	1.27	1.42
NCI-H838	0.769	0.925	1.04	0.859	0.902	0.68	0.662	0.794	0.707	0.683
NCI-H1355	0.715	0.828	0.622	0.835	0.736	0.631	0.607	0.627	0.647	0.647
NCI-H1395	0.477	0.395	0.46	0.367	0.367	0.685	1.09	0.695	0.623	0.858
NCI-H1437	0.944	1.05	1.17	1.04	0.943	0.606	0.81	0.78	0.758	0.591
NCI-H1648	–	0.612	–	0.629	0.821	–	0.315	–	0.32	0.927
NCI-H1650	–	–	–	–	–	0.499	0.581	0.635	–	0.445
NCI-H1651	0.473	0.346	0.508	0.416	0.466	0.535	0.64	0.551	0.527	0.612
NCI-H1666	0.851	0.803	0.888	0.8	0.99	1.06	0.974	1.16	0.893	1.07
NCI-H1703	0.155	0.143	–	–	0.134	–	–	–	–	–
NCI-H1734	0.736	0.54	0.603	0.522	0.628	0.748	0.802	0.796	0.746	0.854
NCI-H1755	0.486	0.392	0.489	0.526	0.434	0.723	0.69	0.796	0.946	0.717
NCI-H1792	0.547	0.654	0.691	0.496	0.604	–	–	–	–	–
NCI-H1793	0.483	0.414	0.451	0.409	0.259	0.642	0.888	0.762	0.809	0.881
NCI-H1915	0.683	0.613	0.646	0.694	0.721	0.55	0.442	0.49	0.551	0.562
NCI-H1944	0.493	0.414	0.48	0.57	0.527	0.448	0.579	0.465	0.532	0.588
NCI-H1975	0.729	0.721	0.743	0.587	0.651	0.669	0.695	0.745	0.705	0.721
